pEC50, pKi: −log10 of the molar value. Read-outs that look alike come from different tables or passages of the source. Each block holds one molecule with its values, some of them ahead of it.
What was measured:
[1] = tested on: rat isolated perfused heart; test: Reversal time of coronary vasodilation in rat isolated perfused hearts; settings: bolus, rat isolated perfused heart;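 further: each agonist bolused at its minimal concentration giving equal maximal coronary conductance rise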
[2] = biological target: T1, human A2B adenosine receptors (Homo sapiens, UniProt P29275); test: cAMP accumulation in HEK-293 cells expressing A2B adenosine receptors; type: cell-based; settings: up to 100 μM
T1 construct: expressed in transfected cells
T1 sequence (P29275 1-332): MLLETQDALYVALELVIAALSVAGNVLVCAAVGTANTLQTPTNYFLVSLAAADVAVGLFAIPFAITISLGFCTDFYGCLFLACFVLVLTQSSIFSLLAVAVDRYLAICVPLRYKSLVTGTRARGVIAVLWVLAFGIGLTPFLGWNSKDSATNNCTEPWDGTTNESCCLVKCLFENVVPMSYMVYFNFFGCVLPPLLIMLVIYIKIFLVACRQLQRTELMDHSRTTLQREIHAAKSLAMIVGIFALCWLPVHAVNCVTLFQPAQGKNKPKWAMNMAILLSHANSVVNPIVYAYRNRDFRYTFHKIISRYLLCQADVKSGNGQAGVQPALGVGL

A2A adenosine receptors = A2A adenosine receptors (Sus scrofa, UniProt K9IW67); test: Competitive radioligand binding, [3H]ZM241385, pig striatum membranes; settings: for Ki: [3H]ZM241385, Gpp(NH)p present, read-out: pKi ± SEM, Pig Strialum (A2A) (converted); for pKi: read-out: binding affinity to A2A receptors in pig striatum (Ki)
Description: Membranes were also obtained from porcine striatial cells as follows. […] The homogenate was filtered through cotton gauze and centrifuged at 48,000g for 15 minutes at 4° C. […] The final pellet was frozen at −80° C. until used for receptor binding assays.

[3] = biological target: A2A adenosine receptors (PC12 cells) (Rattus norvegicus, UniProt P30543); test: cAMP accumulation in PC12 cells
Description: Effects of adenosine receptor agonists on cAMP content in intact PC12 cells. […] Cyclic AMP levels were determined as described under “Methods”. Values represent mean±SEM of results of triplicate samples from three experiments. […] Values represent mean±SEM of triplicate determinants from one representative experiment.
Briefly, PC12 cells were rinsed three times with Hanks' balanced saline solution (HBSS), detached using a cell lifter, and pelleted by centrifugation at 500 g for 5 minutes. Aliquots of the cell suspension (0.1 to 0.2 mg protein) were placed in microfuge tubes with 250 μL of HBSS containing rolipram (50 μmol/L) to inhibit phosphodiesterases that degrade cAMP_and warmed to 37° C. Appropriate drugs were added to the cell suspensions, and incubations were allowed to continue for 10 minutes. Tubes were placed in a boiling water bath for 5 minutes to terminate the incubation. The samples were then cooled to room temperature, diluted by the addition of 1 mL of 10 mmol/L Tris-HCl buffer at pH 7.4, and then centrifuged for 2 minutes at 13000 g.
The samples were then incubated at 4° C. for 16 hours. At the end of the incubation, 70 μL of a 50% (wt/vol) hydroxyapatite suspension was added to each tube. The suspensions were gently agitated and then incubated for 10 minutes at 4° C. Antibody-bound radioactivity adsorbed to hydroxyapatite was collected onto glass fiber filters by vacuum filtration using a Brandel cell harvester. Radioactivity retained by the filter was counted in a gamma counter. […] The amount of cAMP present in samples was calculated based on a standard curve using known amounts of cAMP.

[4] = biological target: human A2A adenosine receptors (Homo sapiens, UniProt P29274); test: Competitive radioligand binding, [3H]ZM241385, HEK-hA2AAdoR membranes
Description: Each point represents the mean±SEM of triplicates pooled from at least three experiments.
ZM241385 was purchased from Tocris Cookson Ltd (Langford, Bristol, UK).
Competitive radiolabeling binding assays were performed to determine the binding affinities of the compounds of the invention for the adenosine receptor subtypes, A1, A2A, A2B and A3. Briefly, membrane suspensions, obtained from cells expressing either adenosine receptor subtypes A1, A2A, A2B or A3were incubated for 2 hours at room temperature in 50 mmol/L Tris-HCl buffer (pH 7.4) containing ADA (1U/mL). […] At the end of the incubation, free radioligand was separated from membrane-bound radioligand by filtration through Whatman GF/C glass fiber filters using a Brandel tissue harvester (Gaithersburg, Md.). Triplicate determinations were performed for each concentration of unlabelled compound.

[5] = Coronary and peripheral artery blood flow velocity, HR and MAP in anesthetized closed-chest dogs; type: in vivo; set-up: APV: unit not given here; settings: for APV / MAP / HR: CVT-3146 (1 ug/kg)
Description: Mongrel dogs (either sex, 17-21 kg; n=6) were obtained from a local vendor (Barton, Oxford, N.J.). Blood flow velocity in the coronary and cranial circumflex arteries was measured using Doppler transducer-tipped guide wires 0.014″ in diameter (FloWire®, model 1400J) purchased from Cardiometrics, Inc., Mountain View, Calif. For the positioning of the FloWire, a Judkins left coronary guiding catheter (JL3.5, 8F; Cordis) was used. Vascular arterial angiography was performed using Hypaque-76 contrast fluid (Bracco Diagnostics, Inc., Princeton, N.J.; Lot #9H28899) and a mobile fluoroscopic unit (Philips, BV 29). Systemic arterial blood pressure was measured using an electronic transducer-tipped catheter (Millar).
Following the administration of heparin (20 U/kg+100 U/hr), the pressure transducer-tipped catheter was introduced through the left femoral artery and positioned in the descending aorta. The Doppler FloWire was introduced through the right femoral artery. A peripheral vein was cannulated for the administration of all drugs. […] The sequence of positioning of the Doppler catheter was reversed in consecutive experiments. […] All parameters were allowed to recover (>30 min) to their respective baseline values between two consecutive drug administrations. […] The effect of adenosine on both coronary and peripheral artery APV was studied in five of the six dogs.
The following parameters were monitored and recorded: Average peak coronary and peripheral artery blood flow velocity (APV), mean arterial blood pressure (MAP) (mmHg), and sinus cycle length (SCL; msec). Differences in measure parameters were tested for statistical significance using ANOVA and Student's t test corrected for multiple measurements. Data are expressed as the mean±SEM.

Sequence of A2A adenosine receptors (K9IW67 1-409): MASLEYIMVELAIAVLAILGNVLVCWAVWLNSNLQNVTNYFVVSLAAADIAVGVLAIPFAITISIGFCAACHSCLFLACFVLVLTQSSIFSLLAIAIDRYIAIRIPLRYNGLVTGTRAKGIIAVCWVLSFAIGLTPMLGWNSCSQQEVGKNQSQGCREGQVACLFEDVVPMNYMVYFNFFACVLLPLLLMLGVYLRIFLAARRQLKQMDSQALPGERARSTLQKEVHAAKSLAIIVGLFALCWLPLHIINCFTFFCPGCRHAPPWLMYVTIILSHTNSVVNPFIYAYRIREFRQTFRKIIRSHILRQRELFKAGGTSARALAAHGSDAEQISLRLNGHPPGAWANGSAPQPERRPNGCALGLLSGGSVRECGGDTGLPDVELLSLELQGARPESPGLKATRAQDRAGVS
Sequence of A2A adenosine receptors (PC12 cells) (P30543 whole entry): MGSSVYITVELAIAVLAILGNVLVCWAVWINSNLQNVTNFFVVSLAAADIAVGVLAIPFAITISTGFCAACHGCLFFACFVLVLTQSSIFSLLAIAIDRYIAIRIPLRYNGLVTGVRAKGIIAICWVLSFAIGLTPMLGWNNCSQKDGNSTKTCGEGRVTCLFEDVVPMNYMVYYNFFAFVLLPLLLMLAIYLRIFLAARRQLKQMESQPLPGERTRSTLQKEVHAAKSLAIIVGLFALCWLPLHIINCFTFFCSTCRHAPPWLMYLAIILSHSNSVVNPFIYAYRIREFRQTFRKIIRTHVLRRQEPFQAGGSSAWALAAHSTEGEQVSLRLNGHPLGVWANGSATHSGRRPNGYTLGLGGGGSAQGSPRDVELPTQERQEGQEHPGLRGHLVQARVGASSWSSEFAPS
Sequence of human A2A adenosine receptors (P29274 whole entry): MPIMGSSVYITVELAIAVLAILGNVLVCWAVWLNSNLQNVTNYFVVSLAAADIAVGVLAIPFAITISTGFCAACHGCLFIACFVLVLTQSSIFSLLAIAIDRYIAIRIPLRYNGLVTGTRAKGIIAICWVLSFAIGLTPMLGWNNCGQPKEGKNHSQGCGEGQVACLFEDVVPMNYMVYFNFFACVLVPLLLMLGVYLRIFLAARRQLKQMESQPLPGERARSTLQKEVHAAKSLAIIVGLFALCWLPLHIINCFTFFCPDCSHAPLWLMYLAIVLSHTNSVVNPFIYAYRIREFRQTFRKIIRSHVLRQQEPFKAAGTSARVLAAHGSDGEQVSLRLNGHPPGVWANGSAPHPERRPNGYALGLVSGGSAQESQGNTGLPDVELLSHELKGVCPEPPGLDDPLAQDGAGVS

Ki (A2A adenosine receptors): 2.14 µM | pKi (A2A adenosine receptors): 5.85 | pEC50 [3]: 6.31 | shift to the right of the CGS21680 concentration-response curve ([3]; CVT-3033 1 μM, PC12 cells): ~5 fold | Emax ([3]; PC-12, read-out: maximal response of cAMP accumulation, % of that induced by CGS21680): 63% | agonist behaviour in PC12 cells ([3]; cAMP accumulation): partial A2A agonists | pKi ([4]; binding affinity in HEK cells expressing human A2A receptors (Ki)): 5.54 | pKi ([4]; pKi ± SEM, HEK-hA2AAdoR, [3H]ZM241385): 5.54
SMILES: CCCCCn1cc(-c2nc(N)c3ncn(C4O[C@@H](CO)[C@H](O)[C@@H]4O)c3n2)cn1 (stereo partly drawn) [CVT-3033]
t0.5, time to 50% reversal of the increase in coronary conductance [1]: 3.4 ± 0.5 min | t0.9, time to 90% reversal of the increase in coronary conductance [1]: 8.4 ± 2.2 min | effect on cellular cAMP content [2]: neither CVT-3033 nor CVT-3146 had any detectable effects

SMILES: CNC(=O)c1cnn(-c2nc(N)c3ncn(C4O[C@@H](CO)[C@H](O)[C@@H]4O)c3n2)c1 (stereo partly drawn) [CVT-3146]
effect on cellular cAMP content [2]: neither CVT-3033 nor CVT-3146 had any detectable effects | Ki (A2A adenosine receptors): 1.12 µM | pKi (A2A adenosine receptors): 5.96 | pEC50 [3]: 6.54 | time for all parameters to return to baseline post injection ([5]; CVT-3146 1 μg/kg, adenosine 200 or 300 μg/kg iv bolus, anesthetized dogs): ≤ 5 min | APV ([5]; Coronary, time 1′, Baseline 49 ± 7): 100 ± 12 | MAP ([5]; Coronary, time 1′, Baseline 128 ± 7): 112 ± 7 mmHg | HR ([5]; Coronary, time 1′, Baseline 171 ± 8): 186 ± 7 | APV ([5]; Coronary, time 1.5′, Baseline 49 ± 7): 97 ± 11 | MAP ([5]; Coronary, time 1.5′, Baseline 128 ± 7): 110 ± 7 mmHg | HR ([5]; Coronary, time 1.5′, Baseline 171 ± 8): 186 ± 7 | APV ([5]; Coronary, time 2′, Baseline 49 ± 7): 88 ± 11 | MAP ([5]; Coronary, time 2′, Baseline 128 ± 7): 110 ± 7 mmHg | HR ([5]; Coronary, time 2′, Baseline 171 ± 8): 185 ± 7 | APV ([5]; Coronary, time 3′, Baseline 49 ± 7): 81 ± 11 | MAP ([5]; Coronary, time 3′, Baseline 128 ± 7): 110 ± 6 mmHg | HR ([5]; Coronary, time 3′, Baseline 171 ± 8): 185 ± 7 | APV ([5]; Coronary, time 4′, Baseline 49 ± 7): 75 ± 11 | MAP ([5]; Coronary, time 4′, Baseline 128 ± 7): 110 ± 6 mmHg | HR ([5]; Coronary, time 4′, Baseline 171 ± 8): 183 ± 8 | APV ([5]; Coronary, time 5′, Baseline 49 ± 7): 72 ± 11 | MAP ([5]; Coronary, time 5′, Baseline 128 ± 7): 112 ± 6 mmHg | HR ([5]; Coronary, time 5′, Baseline 171 ± 8): 183 ± 8 | APV ([5]; Coronary, time 6′, Baseline 49 ± 7): 65 ± 11 | MAP ([5]; Coronary, time 6′, Baseline 128 ± 7): 113 ± 6 mmHg | HR ([5]; Coronary, time 6′, Baseline 171 ± 8): 182 ± 8 | APV ([5]; Coronary, time 7′, Baseline 49 ± 7): 63 ± 12 | MAP ([5]; Coronary, time 7′, Baseline 128 ± 7): 115 ± 6 mmHg | HR ([5]; Coronary, time 7′, Baseline 171 ± 8): 181 ± 8 | APV ([5]; Coronary, time 8′, Baseline 49 ± 7): 55 ± 11 | MAP ([5]; Coronary, time 8′, Baseline 128 ± 7): 117 ± 6 mmHg | HR ([5]; Coronary, time 8′, Baseline 171 ± 8): 180 ± 8 | APV ([5]; Coronary, time 9′, Baseline 49 ± 7): 55 ± 11 | MAP ([5]; Coronary, time 9′, Baseline 128 ± 7): 119 ± 6 mmHg | HR ([5]; Coronary, time 9′, Baseline 171 ± 8): 177 ± 9 | APV ([5]; Coronary, time 10′, Baseline 49 ± 7): 53 ± 11 | MAP ([5]; Coronary, time 10′, Baseline 128 ± 7): 120 ± 6 mmHg | HR ([5]; Coronary, time 10′, Baseline 171 ± 8): 176 ± 9 | APV ([5]; Coronary, time 10″, Baseline 49 ± 7): 84 ± 4 | HR ([5]; Coronary, time 10″, Baseline 171 ± 8): 177 ± 8 | APV ([5]; Coronary, time 20″, Baseline 49 ± 7): 106 ± 8 | MAP ([5]; Coronary, time 20″, Baseline 128 ± 7): 116 ± 9 mmHg | HR ([5]; Coronary, time 20″, Baseline 171 ± 8): 186 ± 9 | APV ([5]; Coronary, time 30″, Baseline 49 ± 7): 109 ± 10 | MAP ([5]; Coronary, time 30″, Baseline 128 ± 7): 117 ± 7 mmHg | HR ([5]; Coronary, time 30″, Baseline 171 ± 8): 188 ± 7 | APV ([5]; Peripheral, time 1′, Baseline 34 ± 8): 42 ± 4 | MAP ([5]; Peripheral, time 1′, Baseline 116 ± 8): 102 ± 6 mmHg | HR ([5]; Peripheral, time 1′, Baseline 162 ± 9): 182 ± 7 | APV ([5]; Peripheral, time 1.5′, Baseline 34 ± 8): 42 ± 4 | MAP ([5]; Peripheral, time 1.5′, Baseline 116 ± 8): 99 ± 7 mmHg | HR ([5]; Peripheral, time 1.5′, Baseline 162 ± 9): 184 ± 7 | APV ([5]; Peripheral, time 2′, Baseline 34 ± 8): 40 ± 4 | MAP ([5]; Peripheral, time 2′, Baseline 116 ± 8): 98 ± 7 mmHg | HR ([5]; Peripheral, time 2′, Baseline 162 ± 9): 187 ± 8 | APV ([5]; Peripheral, time 3′, Baseline 34 ± 8): 40 ± 4 | MAP ([5]; Peripheral, time 3′, Baseline 116 ± 8): 97 ± 7 mmHg | HR ([5]; Peripheral, time 3′, Baseline 162 ± 9): 187 ± 8 | APV ([5]; Peripheral, time 4′, Baseline 34 ± 8): 39 ± 4 | MAP ([5]; Peripheral, time 4′, Baseline 116 ± 8): 100 ± 6 mmHg | HR ([5]; Peripheral, time 4′, Baseline 162 ± 9): 186 ± 8 | APV ([5]; Peripheral, time 5′, Baseline 34 ± 8): 37 ± 5 | MAP ([5]; Peripheral, time 5′, Baseline 116 ± 8): 101 ± 6 mmHg | HR ([5]; Peripheral, time 5′, Baseline 162 ± 9): 185 ± 8 | APV ([5]; Peripheral, time 10″, Baseline 34 ± 8): 34 ± 4 | MAP ([5]; Peripheral, time 10″, Baseline 116 ± 8): 114 ± 9 mmHg | HR ([5]; Peripheral, time 10″, Baseline 162 ± 9): 167 ± 6 | APV ([5]; Peripheral, time 20″, Baseline 34 ± 8): 38 ± 4 | MAP ([5]; Peripheral, time 20″, Baseline 116 ± 8): 107 ± 8 mmHg | HR ([5]; Peripheral, time 20″, Baseline 162 ± 9): 177 ± 7 | APV ([5]; Peripheral, time 30″, Baseline 34 ± 8): 41 ± 4 | MAP ([5]; Peripheral, time 30″, Baseline 116 ± 8): 111 ± 6 mmHg | HR ([5]; Peripheral, time 30″, Baseline 162 ± 9): 183 ± 8
